Results from US11981677B2, “Further substituted triazolo quinoxaline derivatives” (Grünenthal GmbH, priority 2018, dated 2024).

Biological target: T1, Glucocorticoid Receptor (Homo sapiens, UniProt P04150)
T1 construct: expressed in transfected cells
T1 sequence (P04150 524-758 limits assumed): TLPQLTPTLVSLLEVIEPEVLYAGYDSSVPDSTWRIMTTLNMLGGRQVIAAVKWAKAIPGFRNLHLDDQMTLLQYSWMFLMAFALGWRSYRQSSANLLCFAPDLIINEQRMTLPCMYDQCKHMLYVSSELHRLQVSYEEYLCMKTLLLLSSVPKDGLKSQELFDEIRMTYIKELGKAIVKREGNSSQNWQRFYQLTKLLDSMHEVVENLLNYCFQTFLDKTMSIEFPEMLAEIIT
Assay: Agonistic mode of action on the glucocorticoid receptor (CHO-Gal4/GR luciferase reporter cell line)
Type: cell-based
Details: CHO-Gal4/GR luciferase reporter cells; observed in the agonistic assay or the antagonistic assay (mode not given); read-out: IC50 or EC50 range
From the text: Potential selective glucocorticoid receptor modulators of this intervention can be tested for modulation of the activity of the glucocorticoid receptor using cell-based assays. These assays involve a Chinese hamster ovary (CHO) cell line which contains fragments of the glucocorticoid receptor as well as fusion proteins. The glucocorticoid receptor fragments used are capable of binding the ligand (e.g. beclomethasone) to identify molecules that compete for binding with glucocorticoid receptor ligands. In more detail, the glucocorticoid receptor ligand binding domain is fused to the DNA binding domain (DBD) of the transcriptionfactor GAL4 (GAL4 DBD-GR) and is stably integrated into a CHO cell line containing a GAL4-UAS-Luciferase reporter construct. […] After cell lysis the luminescence that is produced by luciferase after addition of the substrate is detected and EC50 or IC50 values can be calculated. Engagement of molecules which induce gene expression via glucocortocoid receptor binding to the DNA leads to expression of the luciferase gene under the control of the fusion protein GAL4 DBD-GR and therefore to a dose-dependent increase of the luminescence signal. Binding of molecules which repress beclomethasone-induced gene expression of the luciferase gene under the control of the fusion protein GAL4 DBD-GR leads to a dose-dependent reduction of the luminescence signal.
The reporter cell line CHO-Gal4/GR consisted of a chinese hamster ovary (CHO) cell line (Leibniz Institute DSMZ—German Collection of Microorganisms and Cell Cultures GmbH: ACC-110) containing a firefly luciferase gene under the control of the GR ligand binding domain fused to the DNA binding domain (DBD) of GAL4 (GAL4 DBD-GR) stably integrated into CHO cells. This cell line was established by stable transfection of CHO cells with a GAL4-UAS-Luciferase reporter construct. In a subsequent step the ligand binding domain of the GR cloned into pIRES2-EGFP-GAL4 containing the DNA binding domain of GAL4 from pFA-AT2 was transfected. This fusion construct activated firefly luciferase expression under the control of a multimerized GAL4 upstream activation sequence (UAS). The signal of the emitted luminescence was recorded by the FLIPR^TETRA. This allowed for specific detection of ligand-induced activation of the GR and therefore for the identification of compounds with agonistic properties. The GAL4/UAS reporter was premixed with a vector that constitutively expressed Renilla luciferase, which served as an internal positive control for transfection efficiency.
The complete culture medium for the assay was: • DMEM F-12 (1:1) MIXTURE (LONZA cat. No: BE04-687F/U1) 500 mL • 5 mL of 100 mM Sodium Pyruvate (LONZA cat. No: BE12-115E) • 25 mL of 7.5% Sodium Bicarbonate (LONZA cat. No BE17-613E) • 6.5 mL of 1 M Hepes (LONZA cat. No: BE17-737E) • 5 mL of 100× Penicillin/Streptomycin (LONZA cat. No DE17-602E) • 50 mL of Fetal Bovine Serum (Euroclone cat. No ECS 0180L) • 0.25 mL of 10 mg/mL Puromycin (InvivoGen cat.: ant-pr-1) • 0.5 mL of 100 mg/mL Zeocin (InvivoGen cat.: ant-zn-1)
Cryo-preserved CHO-Gal4/GR cells were suspended in complete medium and 5000 cells/25 μl/well were seeded into the wells of 384-well polystyrene assay plates (Thermo Scientific, cat. #4332) and cultured at 37° C., 5% CO2 and 95% humidity. After 24 hours growth medium was carefully removed and replaced by 30111 Opti-MEM (GIBCO, cat. #31985062) as assay buffer. To test the compounds an 8-point half-log compound dilution curve was generated in 100% DMSO starting from a 2 mM stock and compounds were then diluted 1:50 in Opti-MEM. 10111 of compounds were then added to the wells containing 30 μl Opti-MEM resulting in a final assay concentration range from 10 μM to 0.003 μM in 0.5% DMSO. Compounds were tested at 8 concentrations in quadruplicate data points. […] Finally, cells were lysed with 20 μl of Triton/Luciferin solution and the signal of the emitted luminescence was recorded at the FLIPR^TETRA for 2 minutes. […]

IC50 or EC50 (antagonist or agonist mode, not stated per compound) [µM]	SMILES
< 0.1	CCc1nnc2n1-c1c(C)c(-c3cccc4c3ccn4S(C)(=O)=O)cc(F)c1NC2(C)C [Example 308, 1-Ethyl-6-fluoro-4,4,9-trimethyl-8-(1-methylsulfonyl-1H-indol-4-yl)-5H-[1,2,4]triazolo[4,3-a]quinoxaline]
0.1 to 1	COc1c(-c2cccc3c2ccn3C2CC2)cc(F)c2c1-n1c(C)nnc1C(C)(C)N2 [Example 511, 8-(1-Cyclopropyl-1H-indol-4-yl)-6-fluoro-9-methoxy-1,4,4-trimethyl-5H-[1,2,4]triazolo[4,3-a]quinoxaline]
< 0.1	Cc1c(-c2cccc3c2ccn3S(C)(=O)=O)cc(Cl)c2c1-n1c(C)nnc1C(C)(C)N2 [Example 456, 6-Chloro-1,4,4,9-tetramethyl-8-(1-methylsulfonyl-1H-indol-4-yl)-5H-[1,2,4]triazolo[4,3-a]quinoxaline]
< 0.1	CCS(=O)(=O)n1ccc2c(-c3cc(F)c4c(c3C(F)F)-n3c(C)nnc3C(C)(C)N4)cc(F)cc21 [Example 460, 9-(Difluoro-methyl)-8-[1-(ethylsulfonyl)-6-fluoro-1H-indol-4-yl]-6-fluoro-1,4,4-trimethyl-5H-[1,2,4]triazolo[4,3-a]quinoxaline]
0.1 to 1	COc1c(-c2cc(F)cc3c(C)c[nH]c23)cc(F)c2c1-n1c(C3CC3)nnc1C(C)(C)N2 [Example 62, 1-Cyclopropyl-6-fluoro-8-(5-fluoro-3-methyl-1H-indol-7-yl)-9-methoxy-4,4-dimethyl-5H-[1,2,4]triazolo[4,3-a]quinoxaline]
0.1 to 1	CNc1c(-c2cc(F)cc3c2ccn3S(C)(=O)=O)cc(F)c2c1-n1c(C)nnc1C(C)(C)N2 [Example 486, [6-Fluoro-8-(6-fluoro-1-methylsulfonyl-1H-indol-4-yl)-1,4,4-trimethyl-5H-[1,2,4]triazolo[4,3-a]quinoxalin-9-yl]-methyl-amine]
0.1 to 1	CCc1nnc2n1-c1c(C)c(-c3cc(F)cc4c(C)c[nH]c34)cc(F)c1NC2(C)C [Example 316, 1-Ethyl-6-fluoro-8-(5-fluoro-3-methyl-1H-indol-7-yl)-4,4,9-trimethyl-5H-[1,2,4]triazolo[4,3-a]quinoxaline]
0.1 to 1	Cc1c(-c2cc(C(F)(F)F)cc3[nH]ncc23)cc(F)c2c1-n1c(C)nnc1C(C)(C)N2 [Example 507, 6-Fluoro-1,4,4,9-tetramethyl-8-[6-(trifluoromethyl)-1H-indazol-4-yl]-5H-[1,2,4]triazolo[4,3-a]quinoxaline]
0.1 to 1	Cc1c(-c2cccc3c2cnn3C)cc(F)c2c1-n1c(C)nnc1C(C)(C)N2 [Example 304, 6-Fluoro-1,4,4,9-tetramethyl-8-(1-methyl-1H-indazol-4-yl)-5H-[1,2,4]triazolo[4,3-a]quinoxaline]
0.1 to 1	Cc1c(-c2cc(F)cc3c2ccn3CCO)c(F)c(F)c2c1-n1c(C)nnc1C(C)(C)N2 [Example 449, 2-[4-(6,7-Difluoro-1,4,4,9-tetramethyl-5H-[1,2,4]triazolo[4,3-a]quinoxalin-8-yl)-6-fluoro-1H-indol-1-yl]-EtOH]
1 to 15	Cc1c(-c2cc(F)cc3c2ccn3CCO)cc(F)c2c1-n1c(C3CC3)nnc1C(C)(C)N2 [Example 65, 2-[4-(1-Cyclopropyl-6-fluoro-4,4,9-trimethyl-5H-[1,2,4]triazolo[4,3-a]quinoxalin-8-yl)-6-fluoro-1H-indol-1-yl]-EtOH]
0.1 to 1	CCc1nnc2n1-c1c(C)c(-c3cccc4c(C)c[nH]c34)cc(F)c1NC2(C)C [Example 355, 1-Ethyl-6-fluoro-4,4,9-trimethyl-8-(3-methyl-1H-indol-7-yl)-5H-[1,2,4]triazolo[4,3-a]quinoxaline]
0.1 to 1	Cc1c(-c2ccc(F)c3[nH]ccc23)cc(F)c2c1-n1c(C)nnc1C(C)(C)N2 [Example 490, 6-fluoro-8-(7-fluoro-1H-indol-4-yl)-1,4,4,9-tetramethyl-4,5-dihydro-[1,2,4]triazolo[4,3-a]quinoxaline]
0.1 to 1	COc1c(-c2ccc(F)c3[nH]ccc23)cc(F)c2c1-n1c(C)nnc1C(C)(C)N2 [Example 494, 6-Fluoro-8-(7-fluoro-1H-indol-4-yl)-9-methoxy-1,4,4-trimethyl-5H-[1,2,4]triazolo[4,3-a]quinoxaline]
< 0.1	Cc1c(-c2cc(F)cc3c(C4CC4)c[nH]c23)cc(F)c2c1-n1c(C)nnc1C(C)(C)N2 [Example 38, 8-(3-cyclopropyl-5-fluoro-1H-indol-7-yl)-6-fluoro-1,4,4,9-tetramethyl-4,5-dihydro-1-[1,2,4]triazolo[4,3-a]quinoxaline]
1 to 15	Cc1c(-c2cc(F)cc3c2ccn3S(C)(=O)=O)c(F)c(Cl)c2c1-n1c(C)nnc1C(C)(C)N2 [Example 503, 6-Chloro-7-fluoro-8-(6-fluoro-1-methylsulfonyl-1H-indol-4-yl)-1,4,4,9-tetramethyl-5H-[1,2,4]triazolo[4,3-a]quinoxaline]
< 0.1	COc1c(-c2cc(F)cc3[nH]ccc23)cc(Cl)c2c1-n1c(C)nnc1C(C)(C)N2 [Example 488, 6-Chloro-8-(6-fluoro-1H-indol-4-yl)-9-methoxy-1,4,4-trimethyl-5H-[1,2,4]triazolo[4,3-a]quinoxaline]
0.1 to 1	COc1c(-c2cccc3c2ccn3S(C)(=O)=O)cc(Cl)c2c1-n1c(C)nnc1C(C)(C)N2 [Example 482, 6-Chloro-9-methoxy-1,4,4-trimethyl-8-(1-methylsulfonyl-1H-indol-4-yl)-5H-[1,2,4]triazolo[4,3-a]quinoxaline]
< 0.1	Cc1c(-c2cc(F)cc3c2ccn3S(=O)(=O)CC2CC2)cc(F)c2c1-n1c(C)nnc1C(C)(C)N2 [Example 497, 8-[1-(Cyclopropyl-methylsulfonyl)-6-fluoro-1H-indol-4-yl]-6-fluoro-1,4,4,9-tetramethyl-5H-[1,2,4]triazolo[4,3-a]quinoxaline]
0.1 to 1	Cc1c(-c2cccc3c2cnn3S(C)(=O)=O)c(Cl)c(F)c2c1-n1c(C)nnc1C(C)(C)N2 [Example 527, 7-Chloro-6-fluoro-1,4,4,9-tetramethyl-8-(1-methylsulfonyl-1H-indazol-4-yl)-5H-[1,2,4]triazolo[4,3-a]quinoxaline]
0.1 to 1	Cc1c(-c2cccc3c2ccn3CC(F)F)cc(F)c2c1-n1c(C)nnc1C(C)(C)N2 [Example 326, 8-[1-(2,2-Difluoro-ethyl)-1H-indol-4-yl]-6-fluoro-1,4,4,9-tetramethyl-5H-[1,2,4]triazolo[4,3-a]quinoxaline]
